Reference: PubChem BioAssay AID256 (DTP/NCI, 2004)
Where “and” joins values, the source holds several entries; their conditions need not be identical. Equal entries are not always repeated. Toxic doses and inconclusive results are not listed. How the source made its calls: active means survival T/C of 150% or more; inactive means T/C below 125% in these data.

Tested on: CD2F1 mice, L1210 leukemia ip, survival T/C
Test: NCI In Vivo Anticancer Drug Screen. Data for tumor model L1210 Leukemia (intraperitoneal) in CD2F1 (CDF1) mice
Details: higher = longer survival
Procedure, shortened: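 Mice carrying a transplanted tumor received test compound or vehicle alone. The value is the measurement in the treated group divided by that in the vehicle-treated control group.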

[1] = endpoint: mean survival time, dose: 100.0 mg/kg/injection, schedule: Q04DX003 (ip), vehicle: saline with Tween-80
[2] = endpoint: mean survival time, dose: 200.0 mg/kg/injection, schedule: Q04DX003 (ip), vehicle: saline with Tween-80
[3] = endpoint: mean survival time, dose: 400.0 mg/kg/injection, schedule: Q04DX003 (ip), vehicle: saline with Tween-80
[4] = endpoint: mean survival time, dose: 100.0 mg/kg/injection, schedule: Q01DX009 (ip), vehicle: saline with Tween-80
[5] = endpoint: mean survival time, dose: 200.0 mg/kg/injection, schedule: Q01DX009 (ip), vehicle: saline with Tween-80
[6] = endpoint: mean survival time, dose: 400.0 mg/kg/injection, schedule: Q01DX009 (ip), vehicle: saline with Tween-80

Measured: T/C

CC(C)c1oc(=O)cc2c1C(O)C1OC(=O)C3(C)C(O)C4OC4C2(C)C13 (stereo not drawn) (tested in a mixture with another compound)
inactive: endpoint: mean survival time, dose: 100.0 mg/kg/injection, schedule: Q04DX002 (ip), vehicle: saline with Tween-80 105 % of control

Nc1ccc(Cl)cc1N
inactive: endpoint: mean survival time, dose: 25.0 mg/kg/injection, schedule: Q01DX009 (ip), vehicle: other 96 % of control | endpoint: mean survival time, dose: 50.0 mg/kg/injection, schedule: Q01DX009 (ip), vehicle: other 102 % of control | endpoint: mean survival time, dose: 75.0 mg/kg/injection, schedule: Q01DX009 (ip), vehicle: other 107 % of control | endpoint: mean survival time, dose: 100.0 mg/kg/injection, schedule: Q01DX009 (ip), vehicle: other 106 % of control | endpoint: mean survival time, dose: 150.0 mg/kg/injection, schedule: Q01DX009 (ip), vehicle: other 112 % of control

CCCCCC1C(O)C(=O)OC1(C(F)(F)F)C(F)(F)F (stereo not drawn)
inactive: endpoint: mean survival time, dose: 100.0 mg/kg/injection, schedule: Q04DX003 (ip), vehicle: Klucel (hydroxypropylcellulose) (HPC) 91 % of control | endpoint: mean survival time, dose: 200.0 mg/kg/injection, schedule: Q04DX003 (ip), vehicle: Klucel (hydroxypropylcellulose) (HPC) 94 % of control | endpoint: mean survival time, dose: 400.0 mg/kg/injection, schedule: Q04DX003 (ip), vehicle: Klucel (hydroxypropylcellulose) (HPC) 96 % of control

CC(C)(C)C(=O)CC(=O)C(C)(C)C.CC(C)(C)C(=O)CC(=O)C(C)(C)C.CC(C)(C)C(=O)CC(=O)C(C)(C)C.[Nd]
inactive: [1] 101 % of control | [2] 95 % of control | [3] 95 % of control

Clc1ccc(COCc2ccccc2Cn2ccnc2)cc1
inactive: endpoint: mean survival time, dose: 25.0 mg/kg/injection, schedule: Q01DX009 (ip), vehicle: saline with Tween-80 98 % of control | endpoint: mean survival time, dose: 50.0 mg/kg/injection, schedule: Q01DX009 (ip), vehicle: saline with Tween-80 104 % of control | [4] 96 % of control and 105 % of control

O=C(C1=C/C(=C\c2ccccc2)CCC1)c1ccccc1
inactive: [4] 98 % of control | [1] 104 % of control | [5] 94 % of control | [2] 100 % of control | [6] 88 % of control | [3] 102 % of control

CC(C)(C)OOC(=O)c1ccc([N+](=O)[O-])cc1
inactive: [4] 101 % of control | [5] 97 % of control | [6] 101 % of control

COc1cccc(C(=O)NC[n+]2ccccc2)c1
inactive: endpoint: mean survival time, dose: 100.0 mg/kg/injection, schedule: Q04DX003 (ip), vehicle: saline 110 % of control

Nc1cc(=O)c2nnn(C3OC(CO)C(O)C3O)c2[nH]1 (stereo not drawn)
inactive: endpoint: mean survival time, dose: 12.5 mg/kg/injection, schedule: Q01DX005 (ip), vehicle: water 102 % of control | endpoint: mean survival time, dose: 25.0 mg/kg/injection, schedule: Q01DX005 (ip), vehicle: water 98 % of control | endpoint: mean survival time, dose: 50.0 mg/kg/injection, schedule: Q01DX005 (ip), vehicle: water 94 % of control | endpoint: mean survival time, dose: 100.0 mg/kg/injection, schedule: Q01DX005 (ip), vehicle: water 87 % of control | endpoint: mean survival time, dose: 200.0 mg/kg/injection, schedule: Q01DX005 (ip), vehicle: water 105 % of control | endpoint: mean survival time, dose: 400.0 mg/kg/injection, schedule: Q01DX005 (ip), vehicle: water 90 % of control

COCCOCCOCCOCCOCCOCCOCCOCCOCCOCCOC(=O)N(CC[PH+](c1ccccc1)c1ccccc1)CC[PH+](c1ccccc1)c1ccccc1.[Cl][Pt][Cl]
inactive: endpoint: median survival time, dose: 3.13 mg/kg/injection, schedule: Q04DX003 (ip), vehicle: distilled water + Tween-80 101 % of control | endpoint: median survival time, dose: 6.25 mg/kg/injection, schedule: Q04DX003 (ip), vehicle: distilled water + Tween-80 100 % of control | endpoint: median survival time, dose: 12.5 mg/kg/injection, schedule: Q04DX003 (ip), vehicle: distilled water + Tween-80 104 % of control | endpoint: median survival time, dose: 25.0 mg/kg/injection, schedule: Q04DX003 (ip), vehicle: distilled water + Tween-80 96 % of control | endpoint: median survival time, dose: 50.0 mg/kg/injection, schedule: Q04DX003 (ip), vehicle: distilled water + Tween-80 115 % of control | endpoint: median survival time, dose: 100.0 mg/kg/injection, schedule: Q04DX003 (ip), vehicle: distilled water + Tween-80 100 % of control | endpoint: median survival time, dose: 200.0 mg/kg/injection, schedule: Q04DX003 (ip), vehicle: distilled water + Tween-80 98 % of control
